From US8207293B2, “Peptides derived from maurocalcine used as vectors for intracellular addressing of molecules of interest” (Commissariat a l'Energie Atomique, priority 2004, dated 2012)

How the values were obtained:
[1] = test system: HEK293 cells; assay: Flow cytometry analysis of cellular penetration of complexes (trypsin/heparin treatment); type: cell-based, human; settings: 10 nM to 1 μM complexes
Description: The cells are incubated with maurocalcine and the derived peptides, biotinylated and complexed with […], at the final concentration of 100 nM in PBS, in the dark and at ambient temperature for 1 hour. After 2 washes in PBS (PBS, in mM: […], 6.84 Na2HPO4, 3.16 NaH2PO4, pH 7.2), and the cells were treated with trypsin (1 mg/ml, INVITROGEN), for 10 min at 37° C., in order to remove the extracellular complexes and the plasma-membrane-bound complexes. After the incubation with trypsin, the cell suspension was centrifuged at 500 g and the cells were resuspended in PBS containing 1 μg/ml of propidium iodide (SIGMA). […] The analysis was carried out on live cells, using a flow cytometer (FACScalibur, BECTON DICKINSON). The data were recorded and analyzed using appropriate software (CellQuest, BD BIOSCIENCES). The live cells were sorted according to their size and their granulosity (forward/side scattering), over a total of 10 000 events.
The analysis is carried out as described in Example 1. For the heparin treatment experiments, the complexes were prepared in a heparin solution (bovine intestine heparin, sodium salt, SIGMA) and the cells were washed twice with the heparin solution, before and after incubation with the complexes prepared in the same heparin solution.
The cellular penetration was analyzed by flow cytometry, on cells incubated with the MCab/Strept-Cy3 complexes, and then treated with trypsin, so as to remove the complexes bound to the plasma membrane by means of lipids, specific receptors or heparan sulfate glycosaminoglycan (HPSG). It has been shown that this method makes it possible to effectively study the entry of penetrating peptides into cells (Richard et al., J. Biol. Chem., 2003, 278, 585-590).

[2] = target: T1, RyR1 receptor (Oryctolagus cuniculus, UniProt P11716); assay: Tritiated ryanodine binding assay on heavy sarcoplasmic reticulum vesicles; settings: 100 nM complex
T1 construct: from tissue; host or cells: heavy sarcoplasmic reticulum vesicles (skeletal muscle implied)
Description: (§1) The heavy sarcoplasmic reticulum vesicles are prepared according to the method of Kim et al. (J. Biol. Chem., 1983, 258, 9662-9668) modified as described in Marty et al. (J. Biol. Chem., 2000, 275, 8206-8212). The protein concentration is measured by the Biuret method.
The heavy sarcoplasmic reticulum vesicles (1 mg/ml) are incubated at 37° C. for 2 hours and 30 min, in reaction buffer comprising 5 nM [^3H]-ryanodine, 150 mM NaCl, 2 mM EGTA, 2 mM Ca^2+ (pCa=5) and 20 mM Hepes, pH 7.4. Maurocalcine, the maurocalcine-derived peptides and their biotinylated derivatives are added before the addition of the heavy sarcoplasmic reticulum vesicles. The [^3H]-ryanodine bound to the heavy sarcoplasmic vesicles is measured by filtration through Whatmann GF/B filters, followed by three washes with 5 ml of ice-cold washing buffer (150 mM NaCl, 20 mM Hepes, pH 7.4). The [^3H]-ryanodine retained on the filters is measured by liquid scintillation. The nonspecific binding is measured in the presence of […] ryanodine (20 μM). The results are given in the form of means±standard deviation. Each experiment is carried out in triplicate and repeated at least twice.

[3] = test system: undifferentiated L6 cells; assay: Penetration kinetics in live undifferentiated L6 cells, confocal microscopy; type: cell-based, rat
Description: The L6 rat myogenic cell line (clone C5, EACC) is cultured in DMEM medium supplemented with 15% fetal bovine serum (LIFE TECHNOLOGIES) and 1% penicillin-streptomycin (Invitrogen).
The live cells were incubated with maurocalcine and the derived peptides, biotinylated and complexed with streptavidin-cyanin 3, at the final concentration of 100 nM in PBS, at ambient temperature in freshly changed culture medium, on the platform of an upright microscope (Nikon Eclipse 600 FN, equipped with a water-immersion objective (×40); aperture 0.8) and a confocal head (Nikon PCM 2000), or else with a Leica TCS-SP2 microscope, equipped with an objective (×100), according to the “XYZt” mode.
The penetration kinetics of the maurocalcine and of the derived peptides, biotinylated in complex with streptavidin-Cy3, was initiated by injecting 100 nM of the complex into the culture medium. The Cy3 fluorescence was excited by means of a 543 nm wavelength of an […] laser. The light emission was filtered (595±35 nm filter). The images were recorded and analyzed using the EZ2000 software (Nikon). The quantitative analysis of the relative fluorescence was carried out on the overall signal of all the cells, using appropriate software (Leica).

[4] = test system: live cells; assay: Flow cytometry analysis of cellular penetration at increasing extracellular KCl (membrane potential); type: cell-based; settings: for mean fluorescence value: 100 nM complex, 1 hour
Description: The MCab-Strept-Cy^5 complexes were prepared in solutions containing various NaCl/KCl ratios (composition in mM: 145 to 5 NaCl, 5 to 145 KCl, 2.5 CaCl2, 1.2 MgCl2, 10 glucose, 10 HEPES, pH 7.4).
The cells were washed twice with the NaCl/KCl solution used to prepare the complexes, and then incubated with maurocalcine and the derived peptides, which are biotinylated and complexed with streptavidin-cyanin 3 (MCab-Strept-Cy^3 complexes), at the final concentration of 100 nM in the same NaCl/KCl solution, in the dark and at ambient temperature for 1 hour. After 2 washes in the same NaCl/KCl buffer, the cyanin 3 fluorescence was analyzed on live cells, using a flow cytometer (FACScalibur, BECTON DICKINSON). The data were recorded and analyzed using appropriate software (CellQuest, BD BIOSCIENCES). The live cells were sorted according to their size and their granulosity (forward/side scattering), over a total of 10 000 events.

[5] = target: T1, RyR1 receptor; assay: Ca2+ release by heavy sarcoplasmic reticulum vesicles (antipyrylazo III); type: biochemical; settings: 100 nM complex
Description: as §1
The Ca^2+ release by the heavy sarcoplasmic reticulum vesicles was measured using a Ca^2+-sensitive dye, antipyrylazo III. The absorbance was measured at 710 nm, using a diode-array spectrophotometer (MOS-200, Optical System, BIOLOGIC). The heavy sarcoplasmic reticulum vesicles (50 μg) were actively loaded with Ca^2+, at 37° C., in 2 ml of buffer containing 100 mM KCl, 7.5 mM sodium pyrophosphate, 20 mM MOPS, pH 7.0, to which 250 μM of antipyrylazo III, 1 mM ATP/MgCl2, 5 mM phosphocreatine and 12 μg/ml of creatine phosphokinase had been added (Palade, J. Biol. Chem., 1987, 262, 6142-6148).
The calcium loading begins with sequential additions of 50 μM and 20 μM CaCl2.
Under these loading conditions, no calcium-induced calcium release interferes with the observations. At the end of each experiment, the Ca^2+ remaining in the vesicles is measured by the addition of 4 μM of Ca^2+ ionophore, […] (Sigma), and the absorbance signal is calibrated by means of two consecutive additions of 20 μM CaCl2.

T1 sequence (P11716 whole entry): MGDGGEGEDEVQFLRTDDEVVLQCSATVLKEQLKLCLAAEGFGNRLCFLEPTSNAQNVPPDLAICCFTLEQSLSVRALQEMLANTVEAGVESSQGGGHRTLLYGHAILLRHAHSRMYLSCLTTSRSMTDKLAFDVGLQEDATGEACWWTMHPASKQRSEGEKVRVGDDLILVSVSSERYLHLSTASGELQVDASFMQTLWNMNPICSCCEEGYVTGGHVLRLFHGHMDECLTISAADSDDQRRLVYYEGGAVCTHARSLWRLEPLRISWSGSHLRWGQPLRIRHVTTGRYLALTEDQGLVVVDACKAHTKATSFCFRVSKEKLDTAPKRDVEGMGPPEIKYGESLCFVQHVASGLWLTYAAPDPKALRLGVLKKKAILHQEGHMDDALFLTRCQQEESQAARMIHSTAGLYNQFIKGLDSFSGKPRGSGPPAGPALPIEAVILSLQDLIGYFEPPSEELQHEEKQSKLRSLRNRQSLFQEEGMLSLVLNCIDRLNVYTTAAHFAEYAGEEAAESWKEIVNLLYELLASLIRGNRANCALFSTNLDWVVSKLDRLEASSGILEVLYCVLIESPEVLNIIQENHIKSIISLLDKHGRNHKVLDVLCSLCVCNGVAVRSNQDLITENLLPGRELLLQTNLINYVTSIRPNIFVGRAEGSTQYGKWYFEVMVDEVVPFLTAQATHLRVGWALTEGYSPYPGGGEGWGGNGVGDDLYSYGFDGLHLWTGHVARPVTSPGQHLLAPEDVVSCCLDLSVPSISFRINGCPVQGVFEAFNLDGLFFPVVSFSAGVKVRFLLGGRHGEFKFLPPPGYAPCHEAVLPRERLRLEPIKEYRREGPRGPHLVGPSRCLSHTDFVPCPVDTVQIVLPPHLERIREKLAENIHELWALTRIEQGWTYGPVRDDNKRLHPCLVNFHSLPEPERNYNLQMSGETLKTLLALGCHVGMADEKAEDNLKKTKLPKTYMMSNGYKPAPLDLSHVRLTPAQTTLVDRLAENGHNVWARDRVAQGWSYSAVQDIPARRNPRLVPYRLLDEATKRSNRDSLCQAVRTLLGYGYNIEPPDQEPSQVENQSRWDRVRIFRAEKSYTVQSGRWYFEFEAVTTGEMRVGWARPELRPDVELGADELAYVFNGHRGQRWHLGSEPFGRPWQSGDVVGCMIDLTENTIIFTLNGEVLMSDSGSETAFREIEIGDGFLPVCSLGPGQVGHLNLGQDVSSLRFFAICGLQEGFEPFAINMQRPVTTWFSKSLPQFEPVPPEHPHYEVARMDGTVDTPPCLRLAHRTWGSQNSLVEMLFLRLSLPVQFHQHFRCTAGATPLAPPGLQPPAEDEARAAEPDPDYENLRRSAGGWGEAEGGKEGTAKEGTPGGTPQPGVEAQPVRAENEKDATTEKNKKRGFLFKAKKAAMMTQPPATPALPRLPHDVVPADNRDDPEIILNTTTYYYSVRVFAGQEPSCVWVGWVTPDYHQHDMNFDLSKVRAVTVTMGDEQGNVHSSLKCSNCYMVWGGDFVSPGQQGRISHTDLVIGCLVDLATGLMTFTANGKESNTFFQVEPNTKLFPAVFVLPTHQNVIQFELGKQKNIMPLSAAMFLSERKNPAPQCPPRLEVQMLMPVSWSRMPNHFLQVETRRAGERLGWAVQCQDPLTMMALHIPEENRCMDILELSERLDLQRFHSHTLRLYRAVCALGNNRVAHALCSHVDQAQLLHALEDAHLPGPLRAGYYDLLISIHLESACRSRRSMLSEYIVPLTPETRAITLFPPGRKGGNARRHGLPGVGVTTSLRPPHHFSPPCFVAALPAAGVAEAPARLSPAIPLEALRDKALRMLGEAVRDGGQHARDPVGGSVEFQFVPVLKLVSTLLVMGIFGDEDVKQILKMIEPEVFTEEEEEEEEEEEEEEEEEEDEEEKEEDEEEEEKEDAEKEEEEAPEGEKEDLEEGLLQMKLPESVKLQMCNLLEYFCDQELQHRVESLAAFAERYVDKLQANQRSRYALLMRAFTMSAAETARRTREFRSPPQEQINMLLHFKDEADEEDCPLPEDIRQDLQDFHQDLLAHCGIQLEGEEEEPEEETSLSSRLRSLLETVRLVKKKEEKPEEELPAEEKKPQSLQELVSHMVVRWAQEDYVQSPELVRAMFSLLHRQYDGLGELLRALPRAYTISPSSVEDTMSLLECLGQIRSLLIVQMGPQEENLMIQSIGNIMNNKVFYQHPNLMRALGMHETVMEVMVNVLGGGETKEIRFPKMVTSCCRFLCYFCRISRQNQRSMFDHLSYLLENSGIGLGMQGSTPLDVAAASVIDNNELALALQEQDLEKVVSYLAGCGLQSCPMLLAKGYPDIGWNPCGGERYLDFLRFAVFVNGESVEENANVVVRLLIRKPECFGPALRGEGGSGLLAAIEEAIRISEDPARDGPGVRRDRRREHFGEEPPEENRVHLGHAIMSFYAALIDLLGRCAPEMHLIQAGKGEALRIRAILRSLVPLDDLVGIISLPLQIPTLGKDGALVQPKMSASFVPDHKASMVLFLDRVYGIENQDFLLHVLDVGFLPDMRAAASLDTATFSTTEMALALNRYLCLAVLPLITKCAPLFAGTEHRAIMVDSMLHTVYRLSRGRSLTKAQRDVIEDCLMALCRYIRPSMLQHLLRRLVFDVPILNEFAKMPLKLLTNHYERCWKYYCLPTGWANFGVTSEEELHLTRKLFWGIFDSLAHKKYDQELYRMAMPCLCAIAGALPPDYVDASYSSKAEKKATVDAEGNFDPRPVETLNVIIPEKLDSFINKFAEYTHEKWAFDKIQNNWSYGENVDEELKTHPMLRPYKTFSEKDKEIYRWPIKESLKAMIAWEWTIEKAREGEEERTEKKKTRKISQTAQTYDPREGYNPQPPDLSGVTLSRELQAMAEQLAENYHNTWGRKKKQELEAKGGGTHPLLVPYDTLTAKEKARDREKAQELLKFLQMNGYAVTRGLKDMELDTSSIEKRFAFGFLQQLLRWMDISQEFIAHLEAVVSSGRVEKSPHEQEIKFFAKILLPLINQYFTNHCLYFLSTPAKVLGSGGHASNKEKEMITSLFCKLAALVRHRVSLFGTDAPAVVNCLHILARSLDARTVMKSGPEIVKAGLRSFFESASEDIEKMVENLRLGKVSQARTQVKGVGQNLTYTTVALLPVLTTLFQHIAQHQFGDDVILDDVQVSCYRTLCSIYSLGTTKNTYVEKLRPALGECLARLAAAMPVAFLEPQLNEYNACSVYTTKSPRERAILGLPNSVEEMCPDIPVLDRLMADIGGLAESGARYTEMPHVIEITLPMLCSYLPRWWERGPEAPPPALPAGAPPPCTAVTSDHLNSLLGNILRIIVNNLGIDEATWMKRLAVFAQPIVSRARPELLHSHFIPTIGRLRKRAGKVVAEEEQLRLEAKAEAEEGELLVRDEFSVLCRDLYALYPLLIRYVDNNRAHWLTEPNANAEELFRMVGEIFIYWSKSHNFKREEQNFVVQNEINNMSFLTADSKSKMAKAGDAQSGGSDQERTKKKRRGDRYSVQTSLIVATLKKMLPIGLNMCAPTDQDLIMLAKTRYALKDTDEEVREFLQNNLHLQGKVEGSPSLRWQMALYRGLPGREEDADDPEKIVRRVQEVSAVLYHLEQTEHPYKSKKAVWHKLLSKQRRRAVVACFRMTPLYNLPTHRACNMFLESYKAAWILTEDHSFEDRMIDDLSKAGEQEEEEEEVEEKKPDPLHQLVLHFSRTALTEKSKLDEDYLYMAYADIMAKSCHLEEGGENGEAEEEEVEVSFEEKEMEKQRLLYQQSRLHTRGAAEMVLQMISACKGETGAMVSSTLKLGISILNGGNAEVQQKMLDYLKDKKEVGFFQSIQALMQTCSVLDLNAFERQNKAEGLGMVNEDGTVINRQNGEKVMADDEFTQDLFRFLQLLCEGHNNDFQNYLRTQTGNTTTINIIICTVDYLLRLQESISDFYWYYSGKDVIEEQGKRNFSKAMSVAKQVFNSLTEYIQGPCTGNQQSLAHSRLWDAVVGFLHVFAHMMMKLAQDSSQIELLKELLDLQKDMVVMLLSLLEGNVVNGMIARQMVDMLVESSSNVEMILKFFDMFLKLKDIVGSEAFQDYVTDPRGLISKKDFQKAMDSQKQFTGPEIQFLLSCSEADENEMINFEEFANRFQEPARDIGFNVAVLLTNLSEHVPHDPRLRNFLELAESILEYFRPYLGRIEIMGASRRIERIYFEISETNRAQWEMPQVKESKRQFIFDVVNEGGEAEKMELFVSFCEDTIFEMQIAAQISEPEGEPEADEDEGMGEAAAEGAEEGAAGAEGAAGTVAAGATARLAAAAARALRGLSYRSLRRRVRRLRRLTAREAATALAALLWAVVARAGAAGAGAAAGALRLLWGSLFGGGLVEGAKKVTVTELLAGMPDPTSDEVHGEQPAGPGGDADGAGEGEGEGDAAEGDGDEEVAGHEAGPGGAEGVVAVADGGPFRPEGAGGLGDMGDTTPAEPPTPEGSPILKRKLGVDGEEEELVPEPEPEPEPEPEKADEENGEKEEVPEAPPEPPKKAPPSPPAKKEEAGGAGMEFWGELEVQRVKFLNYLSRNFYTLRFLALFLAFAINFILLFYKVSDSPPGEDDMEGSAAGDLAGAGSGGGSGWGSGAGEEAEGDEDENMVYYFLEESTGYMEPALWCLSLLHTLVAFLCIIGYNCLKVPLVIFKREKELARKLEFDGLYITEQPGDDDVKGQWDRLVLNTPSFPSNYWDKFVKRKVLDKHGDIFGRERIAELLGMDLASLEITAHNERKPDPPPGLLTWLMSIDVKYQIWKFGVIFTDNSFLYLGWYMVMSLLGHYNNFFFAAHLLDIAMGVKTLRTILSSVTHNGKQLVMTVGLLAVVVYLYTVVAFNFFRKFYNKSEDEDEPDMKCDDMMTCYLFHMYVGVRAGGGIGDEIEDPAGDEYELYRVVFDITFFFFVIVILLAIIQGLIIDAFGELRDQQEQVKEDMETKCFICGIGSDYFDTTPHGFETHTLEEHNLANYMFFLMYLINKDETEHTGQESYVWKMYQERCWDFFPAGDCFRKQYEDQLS

With “MCab/Strept-Cy3: biotinylated maurocalcine, complexed with cyanin-3-labeled streptavidin” the saturability of penetration [1] was “cannot be saturated”, the “stimulation of [3H]-ryanodine binding to heavy sarcoplasmic reticulum vesicles” value [2] was “conserve the ability to stimulate [^3H]-ryanodine binding” and the “time of fluorescence peak in the plasma membrane (ROI-1)” value ([3]; 100 nM) was 10 min. The “time at which labeling appears after addition” value ([3]; 100 nM in extracellular medium) was 3 min, the mean fluorescence value ([4]; 5 mM KCl) was 145 and the mean fluorescence value ([4]; 125 mM KCl) was 40. For the same substance, the mean fluorescence value ([4]; 145 mM KCl) was 17, the “decreasing slope a (linear regression of fluorescence vs KCl concentration)” value ([4]; fit y=y0+a×x) was −0.72 and the “maximum fluorescence y0 (linear regression vs KCl concentration)” value ([4]; fit y=y0+a×x) was 139.5. For the same substance, the “efficiency of Ca2+ release in comparison with maurocalcine alone” value [5] was “slightly reduced efficiency” and the “induction of Ca2+ release from sarcoplasmic reticulum vesicles” value [5] was “induce Ca^2+ release”.
